The record followed here is ChEMBL document CHEMBL1949662, “JBIR-94 and JBIR-125, antioxidative phenolic compounds from Streptomyces sp. R56-07” (J Nat Prod, 2012).

Molecules are shown by their SMILES. pIC50: −log10 of the molar value.

For the assay, the system named is Radical scavenging activity. Nature of the assay: Antioxidant activity assessed as DPPH free radical scavenging activity after 30 mins. Format: functional.
With `COc1cc(CCC(=O)NCCCCNC(=O)CCc2ccc(O)c(OC)c2)ccc1O`, the negative-log IC50 (pIC50) (commonly the negative decadic logarithm of the IC50, by convention in mol/L) is 4.94.
The result for `CC(=O)NCCCCN(CCCNC(=O)CCc1ccc(O)cc1)C(=O)CCc1ccc(O)cc1` reads 4.45; that for `Cc1c(C)c2c(c(C)c1O)CC[C@@](C)(CCC[C@H](C)CCC[C@H](C)CCCC(C)C)O2` [ALPHA-TOCOPHEROL], 5.05.
